Test results as given in US20120142601A1, “Modified Peptides and Uses Thereof” (MUSC Foundation for Research Development, priority 2009, published 2012).
Non-standard residues stand in square brackets, D forms with d. Residues, ends and D or L forms follow the SMILES beside them. No end group written: not given here. *: point of attachment. NMeR = CN[C@@H](CCCNC(=N)N)C(=O)O; Tle = CC(C)(C)[C@H](N)C(=O)O; X1 = C[C@@H](CCCCCN)C(=O)*

What was measured:
Catalepsy (bar test) = details: 5 mg/kg
Description: (§1) In laboratory tests, catalepsy is characterized by the inability of an animal to correct its position after placement in an unnatural posture. Catalepsy tests may be greatly influenced by a number of variables. These include stress-induced inhibition of catalepsy caused by a new environment and the contribution of learned “pseudo-catalepsy” that may result upon repeated measures with the same animal. To circumvent these potential confounding factors, tests are performed on an animal only once in a quiet, controlled environment,
(§2) Finally, the bar test was utilized to measure catalepsy as a predictor of EPSEs in humans.

[1] = cited from earlier work
NTR1 = NTR1 (Homo sapiens, UniProt P30989); details: cited from earlier work
Chain of NTR1 (P30989 whole entry, species assumed): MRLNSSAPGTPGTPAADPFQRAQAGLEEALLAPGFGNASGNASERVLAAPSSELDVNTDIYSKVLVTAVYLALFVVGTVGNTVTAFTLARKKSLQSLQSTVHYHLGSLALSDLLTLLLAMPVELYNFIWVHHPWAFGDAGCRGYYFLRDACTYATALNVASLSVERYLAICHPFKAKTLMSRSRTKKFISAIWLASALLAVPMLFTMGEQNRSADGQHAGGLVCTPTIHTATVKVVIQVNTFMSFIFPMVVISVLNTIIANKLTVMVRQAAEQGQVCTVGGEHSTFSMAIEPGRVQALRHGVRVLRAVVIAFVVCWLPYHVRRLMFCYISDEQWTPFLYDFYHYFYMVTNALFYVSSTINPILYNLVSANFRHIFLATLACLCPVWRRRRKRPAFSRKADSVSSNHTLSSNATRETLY

[2] = Hypothermia studies in the male Sprague-Dawley rat with various compounds; type: in vivo; details: dose 1 mg/kg in saline
Description: Hypothermia studies in the male Sprague-Dawley rat were conducted using different compounds (dosed in saline) and the results are summarized in Table 1. For each compound, the maximum decrease in temperature (Δtemp) and the area under the curve for hypothermia versus a saline control (AUC) were measured.

[3] = rat, in vivo
Description: as §1, §2

[4] = in vivo; cited from earlier work

Compound: CC(C)C[C@H](NC(=O)[C@@H](NC(=O)[C@H](Cc1ccc(O)cc1)NC(=O)[C@@H]1CCCN1C(=O)[C@H](CCCNC(=N)N)NC(=O)[C@@H](C)CCCCCN)C(C)(C)C)C(=O)O [ABS-201] (X1-RPY[Tle]L-OH)
- catalepsy after peripheral administration (Catalepsy (bar test)): does not induce catalepsy

Compound: N-Me-L-Arg-L-Lys-L-Pro-L-Trp-t-Leu-L-Leu ([NMeR]KPW[Tle]L) [SEQ ID NO:2, reference compound]
- central activity after oral administration ([1]; oral): not able to elicit central activity
- loss of binding affinity at NTR1 (NTR1): 700 fold
- AUC (area under the curve for hypothermia versus saline control) [2]: 700
- Δtemp (maximum decrease in temperature) [2]: −4.2

Compound: O=C(CCCN1CCC(O)(c2ccc(Cl)cc2)CC1)c1ccc(F)cc1 [Haloperidol]
- duration of induced catalepsy [3]: greater than 30 sec

Compound: N-Me-L-Arg-L-Lys-L-Pro-L-neoTyr-t-Leu-L-Leu [NT69L]
- hypothermic effect ([1]; 1 mg/kg injection, 90 min post-injection): −5.3 °C
- effect of chronic administration on hypothermic effect ([1]; chronic administration): tolerance to its hypothermic effect
- hypothermic response after oral administration ([1]; oral): only a slight hypothermic response
- Kd (NTR1): 1.55 nM
- hyperactivity induced by cocaine and d-amphetamine [4]: attenuated hyperactivity
